Laboratory results published in PMC5344539, “Nematode neuropeptides as transgenic nematicides” (PLoS Pathogens, 2017).

Experiments:
[1] = test system: M. incognita J2s; experiment: Tomato invasion assay with uNLP pre-treated J2s; type: in vivo, Meloidogyne incognita; settings: for % Invasion: Fig 1B, 500 J2s incubated in 100 μM uNLP for 24 h, single tomato seedling, 24 h at 23°C, normalised to negative control = 100%, mean
Protocol: (§1) Predicted uNLPs from both M. incognita and G. pallida were synthesised by EZBiolab and dissolved into pH adjusted ddH2O to make a 5 mM stock which was aliquoted and stored at -20°C. J2s of both M. incognita and G. pallida were incubated for 24 hours in 200 μl of each peptide in a 24 well plate (SPL Lifesciences, South Korea) at a defined concentration.
Tomato seeds were sterilised with 2.5% NaOCl for 15 minutes, washed 5 times in ddH20 and germinated on 0.5% Murashige and Skoog plates at 23°C. […] Invasion assays were performed by mixing 500 pre-treated M. incognita or G. pallida J2s with agar slurry and a single tomato seedling (2 days post germination) in a 6 well plate. Assays were left at 23°C for 24 hours in the case of M. incognita and at 18°C for 24 hours in the case of G. pallida under a 16 hour light and 8 hour darkness cycle. Seedlings were stained using acid fuschin [69] and the number of nematodes within the roots counted. At least five seedlings were used for M. incognita infections assays, with at least 15 seedlings used for G. pallida infections assays (due to increased variation).

[2] = test system: M. incognita J2s; experiment: Chemosensory (chemotaxis) assay of uNLP pre-treated J2s towards tomato root exudate; type: in vivo, Meloidogyne incognita; settings: for effect on chemosensation (in words): 100 μM uNLP, 24 h, relative to controls; for CI score: Fig 1A, J2s incubated in 100 μM uNLP for 24 h, tomato cv. Moneymaker root exudate vs water agar plugs, counted after 3 h, mean of 10 replicates of 100 J2s, control 0.4426
Protocol: as §1
(§2) A 60 mm Petri dish was divided into two segments, a positive and a negative side, with a 0.5 cm 'dead zone' either side of the centre point. The petri dish was filled with 15 ml of 0.25% w/v agar which was allowed to solidify. 3 ml of 0.25% w/v agar slurry in spring water (pH 7, agitated with a magnetic stirrer for several hours to give a smooth consistency) was added to the petri dish and spread evenly over the surface. Root diffusate (attractant) and water only (control) 0.25% agar plugs were embedded in the agar slurry, either side of the assay arena. Root diffusate was collected from 10 tomato plants, aged 3–6 weeks in 1 litre pots, by pouring 500 ml of ddH20 through the soil three times. Diffusate from each plant was combined, filter sterilised and stored at 4°C for a maximum of 1 month. Root diffusate agar plugs were made by melting 1.25% agar in ddH20, cooling to 50°C before mixing with 4 parts of root diffusate. The agar was then allowed to solidify at room temperature. 100 uNLP pre-treated M. incognita or G. pallida J2s were added by pipette to the centre of the plate. J2s which moved out of the 'dead zone' after 3 hours were counted and their location (+/-) scored. The distribution of J2s were used to create a chemotaxis index for each plate, which formed one replicate, a total of 10 replicates where completed for each uNLP treatment.

[3] = test system: G. pallida J2s; experiment: as above; type: in vivo, Globodera pallida; settings: Fig 2A; J2s incubated in 100 μM uNLP for 24 h; tomato cv. Moneymaker root exudate vs water agar plugs; counted after 3 h; mean of 10 replicates of 100 J2s; control 0.4154
Protocol: as §1, §2

[4] = test system: M. incognita J2s; experiment: Serotonin-induced stylet thrusting assay; type: in vivo, Meloidogyne incognita; settings: Fig 1C; J2s incubated in 100 μM uNLP for 24 h; stylet thrusts in 5 mM serotonin, counted 1 min; normalised to control = 100%; mean, at least 30 J2s
Protocol: as §1
Stylet thrusting assays where performed by incubating 100 M. incognita or G. pallida J2s for 15 minute in 5 mM or 2 mM serotonin (Sigma Aldrich, USA), respectively. J2s were placed on a glass slide and stylet thrusts were counted for randomly selected J2s, for 1 minute each. Counts for a given cohort of J2s were taken in a maximum interval of 15 minutes. Longer counting intervals, making for longer serotonin incubations, yielded inconsistent results. At least 30 J2s were counted for each neuropeptide treatment.

Sequence: AFDRLDNSFMLL [Mi-NLP-8d, predicted unamidated NLP of M. incognita, synthesised]
- % Invasion [1]: 29.31%

Sequence: GGARPFYGFFGGGEGTW [Mi-NLP-9e, predicted unamidated NLP of M. incognita, synthesised]
- % Invasion [1]: 48.68%

Sequence: GGARTFLVGE [Mi-NLP-9b, predicted unamidated NLP of M. incognita, synthesised]
- effect on chemosensation (in words) [2]: inhibit chemosensation
- CI score [2]: -0.07417

Sequence: FAPRQFAFA [Mi-NLP-18a, predicted unamidated NLP of M. incognita, synthesised]
- effect on chemosensation (in words) [2]: inhibited
- CI score [2]: -0.1353
- effect on host invasion (in words) ([1]; 100 μM uNLP, 24 h, tomato cv. Moneymaker, relative to controls): inhibited
- % Invasion [1]: 25.88%

Sequence: AGARAFQRPDFDDASYEL [Mi-NLP-9a, predicted unamidated NLP of M. incognita, synthesised]
- % Invasion [1]: 45.59%

Sequence: FNDDELSSLPFNFEYFPSLDTH [Mi-NLP-8b, predicted unamidated NLP of M. incognita, synthesised]
- % Invasion [1]: 61.38%

Sequence: SFDSLTGPGFTGLDT [Gp-NLP-15a, predicted unamidated NLP of G. pallida, synthesised]
- CI score [3]: -0.1451

Sequence: ALDLMEGDGFGGGFD [Mi-NLP-14b, predicted unamidated NLP of M. incognita, synthesised]
- CI score [2]: -0.1155

Sequence: ALDILESDDFGGF [Gp-NLP-14a, predicted unamidated NLP of G. pallida, synthesised]
- CI score [3]: -0.3765

Sequence: AFDRLDVSPFDFDAMT [Mi-NLP-8a, predicted unamidated NLP of M. incognita, synthesised]
- CI score [2]: 0.018
- % Thrusting [4]: 126.10%

Sequence: AFDSFGTPGFTGFD [Mi-NLP-15a, predicted unamidated NLP of M. incognita, synthesised]
- effect on chemosensation (in words) [2]: inhibit chemosensation
- CI score [2]: -0.01067

Sequence: GGARAFAKLEE [Mi-NLP-9c, predicted unamidated NLP of M. incognita, synthesised]
- % Thrusting [4]: 143.20%

Sequence: AFDSFTGPGFTGMD [Gp-NLP-15g, predicted unamidated NLP of G. pallida, synthesised]
- CI score [3]: -0.2208

Sequence: ALDILDGDDFTGFS [Gp-NLP-14e, predicted unamidated NLP of G. pallida, synthesised]
- CI score [3]: -0.0641

Sequence: AGGRLFRMVDLPDGDDFVPEG [Gp-NLP-21e, predicted unamidated NLP of G. pallida, synthesised]
- CI score [3]: -0.3804

Sequence: SFDSFVGKGFTGMD [Mi-NLP-15c, predicted unamidated NLP of M. incognita, synthesised]
- effect on chemosensation (in words) [2]: inhibit chemosensation
- CI score [2]: -0.359

Sequence: SFGDYPFGSRTFAFA [Mi-NLP-18c, predicted unamidated NLP of M. incognita, synthesised]
- % Thrusting [4]: 175.50%

Sequence: SAFDSFVGRGFTGMD [Mi-NLP-15e, predicted unamidated NLP of M. incognita, synthesised]
- effect on chemosensation (in words) [2]: inhibit chemosensation
- CI score [2]: -0.01767
- % Invasion [1]: 38.71%

Sequence: SSLASGRIGFRPA [Mi-NLP-2, predicted unamidated NLP of M. incognita, synthesised]
- % Thrusting [4]: 164.40%

Sequence: SSQFGGENSFARFAFA [Mi-NLP-18e, predicted unamidated NLP of M. incognita, synthesised]
- % Invasion [1]: 46.49%

Sequence: AFDLFTGPGFTGMD [Gp-NLP-15h, predicted unamidated NLP of G. pallida, synthesised]
- CI score [3]: -0.06784

Sequence: GGARPFYGGGYMDGTW [Gp-NLP-21f, predicted unamidated NLP of G. pallida, synthesised]
- CI score [3]: 0.1456
